Patent US10918891B2, “Cosmetic treatment method for the skin” (SYNTIVIA, priority 2016, dated 2021)

Legend:
[1] = test system: NativeSkin® skin explants (Genoskin); experiment: Histological analysis (haematoxylin/eosin) of NativeSkin skin explant ex vivo after UVA irradiation; format: cell-based, human; details: composition 0.9 mmol/L topical, 60 J/cm^2 UVA every day for 3 days, FIG. 5
Method: (§1) The test was carried out on NativeSkin® skin explants (Genoskin), a biopsy of skin bathed in a solid, nourishing matrix while its epidermal surface is preserved in contact with the air. The biopsy is firmly anchored in the matrix and sealed in order to prevent any lateral diffusion of formulation intended for topical application.
(§2) The study was carried out on a donor (phototype 2) under the following conditions.
(§3) The compounds tested are implemented in a composition containing them at 0.9 mmol/L in a mixture of Carbopol® (0.5% p/p), DMSO (0.1% p/p) and H2O (qsp 100%).
(§4) The samples are irradiated at 60 J/cm^2 UVA every day for 3 days. A treatment is carried out for 24 h before the irradiation, by application of the composition tested onto the sample (deposition of 40 μl of composition onto the stratum corneum), then a post-treatment of 24 h after the irradiation, in the same manner.
(§5) A Control of the sample of skin non-irradiated and a Control of the sample of skin irradiated are also carried out, both with application of the vehicle alone (0.5% Carbopol®, 0.1% DMSO, H2O). The Control of the non-irradiated sample of skin is introduced into the irradiator in a sheet of aluminium, in such a way as to protect it against UVs.
(§6) The samples are sampled, cut (according to the conventional method of cryo-sectioning implementing paraffin and freezing) and fixed in 1 ml of formalin for 24 h.
(§7) The explants are then included in paraffin and sections of 5 μm are made.
The slides are then coloured with haematoxylin (basic compound marking the nuclei) and eosin (acidic compound marking the conjunctive tissue).
(§8) The analysis of the marking is carried out with a DM5000B fluorescence microscope (Leica Microsystems) and 10 images are acquired for each sample.

[2] = test system: NativeSkin® skin explants (Genoskin); experiment: Breaks in the DNA (γ-H2AX marking) of NativeSkin skin explant ex vivo after UVA irradiation; format: cell-based, human; details: composition 0.9 mmol/L topical, 60 J/cm^2 UVA every day for 3 days, n=10 images, FIG. 7
Method: as §1, §2, §3, §4, §5, §6, §7
The slides obtained are also marked by immunohistochemistry with the biomarker γ-H2Ax.
as §8
For the marking with γ-H2Ax, for each image, the total number of nuclei is detected with 4′,6-diamidino-2-phenylindole (dapi). In the same image, the number of nuclei having the marking is quantified. The ratio of the number of positive nuclei, multiplied by 100, to the number of total nuclei, is calculated, in order to obtain a percentage (=(positive nuclei*100)/total nuclei), n=10 per sample.
A statistical analysis is carried out with a student's test by comparing the samples to the control (p value[…], p value<0.05**, p value<0.005***, ns not significant).

[3] = test system: normal human Keratinocytes (NHEK); experiment: Reactive oxygen species (H2DCFDA probe) in NHEK after single UVA stress; format: cell-based; details: 24 h incubation; (Ia) 3 ppm, Trolox 20 ppm, Quercetin 18 ppm; UVA 10 J/cm2; normalised to viability (MTS); CTL UVA 289687.6, CTL without stress 16441.9
Method: The cells used for this example are normal human Keratinocytes (NHEK).
The antioxidant properties (neutralising the production of reactive oxygen species) of the compound (Ia) are evaluated after a single stress with UVAs on NHEKs, by a test based on the use of the fluorescent probe H2DCFDA on a triple culture.
H2DCFDA (2′-7′dichlorodihydrofluorescein diacetate, Fischer Scientific) is a probe that, after having diffused into the cell and after its acetate group has been split by intracellular esterases, can be oxidised by free radicals (H2O2) into DCF (2′-7′ dichlorofluorescein), a fluorescent compound. The production of the free radicals can thus be quantified by the level of fluorescence emitted by the oxidised probe. The more the cell produces free radicals, the higher the level of fluorescence detected.
After 24 hours of incubation with the compound (Ia) (3 ppm in an aqueous solution with 0.1% dimethylsulfoxide) or the reference elements, the cells are placed in the presence of the H2DCFDA probe at 3 ppm for 1 hour at 37° C., 5% CO2 in order to allow its intracellular diffusion.
The reference antioxidant elements are: Trolox ([…], Sigma), at 20 ppm and Quercetin (quercetin dihydrate, Sigma), at 18 ppm.
After one rinsing, the cells are subjected to a single stress with UVAs (in the absence of compound (Ia)) at a rate of 10 joules per square centimetre. The quantification of the fluorescence emitted (excitation: 485 nm; emission: 520 nm) is carried out immediately after the end of the UVA stress. […]
In order to provide a result representative of the cellular population of each condition after a single stress with UVAs, a cellular viability test (MTS) is carried out immediately after the quantification of the fluorescence emitted. The fluorescence values are thus normalised with respect to the cellular viabilities in order for it to be possible to compare the levels of fluorescence of the various conditions to each other.

NHEK cells = experiment: Survival (WST1) of NHEK keratinocytes exposed to cigarette extract, comparison with caffeic acid; format: cell-based, human; details: compound 10 ppm pretreatment 24 h and treatment 24 h, cigarette extract 1/50, cigarette extract alone 55% survival, FIG. 4
Method: This study aims to compare the protective or repairing effect of the compounds according to the invention (Ia) and (Ib) with respect to the damage induced on the skin by a cigarette extract. For comparison, caffeic acid (supplier: Acros) is also tested. This acid forms a basic unit of the compounds (Ia) and (Ib) according to the invention.
The NHEK cells are inoculated in a 96-well plate in a suitable medium (Promocell), at a rate of 9000 cells per well, and incubated 24 h at 37° C. and 5% carbon dioxide.
The compounds to be tested are prepared as follows: • (Ia): 10 mg of compound+909 μL of DMSO • (Ib): 7 mg of compound+636 μL of DMSO • caffeic acid: 10 mg of compound+909 μL of DMSO
Each stock solution above is diluted 1000 times, to 10 ppm in the culture medium, then the solutions obtained are filtered by means of a nylon filter (0.22 μm). The final solutions are concentrated to 10 ppm in 0.1% DMSO.
Solutions at 20 ppm in 0.2% DMSO are also prepared in a similar manner, for dilution in the cigarette extract.
An extract of 20 cigarettes is prepared as indicated in example 14 above. This extract is then diluted to 1/50 in the culture medium; or to 2/50 in the culture medium, then to 1/2 in the culture medium, to which the compound to be tested is added at 20 ppm.
The cells are pretreated for 24 h with the compound to be tested at 10 ppm in the culture medium.
The cells are then treated with the cigarette extract diluted to 1/50th with or without the compound tested at 10 ppm for 24 h.
3 h before the end of the test, 10 μl of WST1 cellular proliferation reactant (Roche) are added into each well. The absorbance at 450 nm is measured before and after the addition of WST1 reactant, by means of a Multiskan® reader. The treated cells are compared to the untreated cells and to the cells exposed to the cigarette extract.

IL-8 = IL-8 assay (ELISA) in culture supernatants of NHEK after induction with IL-1β; format: cell-based, human; details: IL-1β 10 ng/ml 24 h, then substance 24 h, compound (Ia) 3 ppm, dexamethasone 0.4 ppm, CTL 0.23, CTL without IL-1β 0.06
Method: This study is carried out on normal human Keratinocytes (NHEK).
In this example, the anti-inflammatory properties of the compound (Ia) are evaluated by the assay of the IL-8, after the application of the cytokine IL-1β at 10 ng/ml onto NHEKs. IL-8 is a major inflammatory cytokine produced first of all during the inflammatory response of the keratinocytes. The quantification of the IL-8 in the culture supernatants allows an evaluation of the inflammatory state of the cells.
The IL-1β is added to the culture medium of the NHEKs at a rate of 10 ng/ml for 24 h. After incubation, the culture media are removed and replaced with culture media containing the compound (Ia) at 3 ppm. After 24 h of incubation, the supernatants are collected.
The reference anti-inflammatory element is dexamethasone (Sigma) used at 0.4 ppm. A control having undergone the same experimental conditions without the compound (Ia) (CTL), as well as a non-induced control (CTL without IL-1β), are also carried out.
The quantification of the IL-8 in 50 μl of the culture supernatants is measured by an ELISA test (human CXCL8/IL-8 Immunoassay, R&D Systems).
Each treatment is carried out in triplicate.

SMILES	Morphology of the epidermis after UVA irradiation (histological analysis) [1]	percentage of nuclei positive for marking with γ-H2AX, compared with controls [2]	Assay of the fluorescence with H2DCFDA after irradiation of NHEKs with UVAs [3]	% survival of the cells (NHEK cells) [%]	Quantification of the IL8 (optical density) (IL-8)
Cc1ncc(CO)c(CNC(=O)/C=C/c2ccc(O)cc2)c1O [Compound (Id), (E)-N-((3-hydroxy-5-(hydroxymethyl)-2-methylpyridin-4-yl)-methyl)-3-(4-hydroxyphenyl)-acrylamide]	partly protected	clearly reduced with respect to the irradiated control sample	–	–	–
Cc1ncc(CO)c(CNC(=O)CCCC[C@@H]2CCSS2)c1O [Comp.1, reference compound]	phenotype of the irradiated sample is also found	level similar to the irradiated sample	–	–	–
O.O.O=c1c(O)c(-c2ccc(O)c(O)c2)oc2cc(O)cc(O)c12 [Quercetin, quercetin dihydrate, reference compound]	–	–	207589.6	–	–
O=C(O)/C=C/c1ccc(O)c(O)c1 [caffeic acid, reference compound]	phenotype of the irradiated sample is also found	level similar to the irradiated sample	–	73	–
C[C@@H]1C[C@H]2[C@@H]3CCC4=CC(=O)C=C[C@]4(C)[C@@]3(F)[C@@H](O)C[C@]2(C)[C@@]1(O)C(=O)CO [Dexamethasone, dexamethasone, reference compound]	–	–	–	–	0.13
Cc1ncc(CO)c(CN)c1O [pyridoxamine, reference compound]	phenotype of the irradiated sample is also found	level similar to the irradiated sample	–	–	–
COc1ccc(/C=C/C(=O)NCc2c(CO)cnc(C)c2O)cc1O [Compound (Ic), (E)-3-(3-hydroxy-4-methoxyphenyl)-N-((3-hydroxy-5-(hydroxymethyl)-2-methylpyridin-4-yl)-methyl)-acrylamide]	totally protected	same phenotype as the non-irradiated control sample	–	–	–
COc1cc(/C=C/C(=O)NCc2c(CO)cnc(C)c2O)ccc1O [Compound (Ib), (E)-3-(4-hydroxy-3-methoxyphenyl)-N-((3-hydroxy-5-(hydroxymethyl)-2-methylpyridin-4-yl)-methyl)-acrylamide]	–	–	–	76	–
